What all share (format): in vivo
The subject of assay [1] is ApoE KO mice fed a Western diet. As to the kind of experiment: Sphinganine in liver and aorta by LC/MS, 12 weeks. Particulars: 0.3 mg/kg/day. An excerpt:
Analysis of Sphingolipids and Phospholipids by LC/MS and HPLC-Total lipids were extracted by the modified method of Bligh-Dyer extraction (E. G. Bligh and W. J. Dyer, Can. J. Med. Sci. 1959;37:911-917; and D. K. Perry, A. Bielawska and Y. A. Hannun, Methods Enzymol. 2000;312:22-31). A Micromass (Waters Corp., Milford, Mass.) Quattro Ultima tandem quadrupole mass spectrometer with a standard Z-sprayTM ion source, set to electrospray positive ionization mode, with MassLynxTM version 3.5 operating software, was used for all quantitative determinations. Source conditions were typically as follows: capillary 3.5 kV, source temperature 110 degrees C., and desolvation temperature 325 degrees C. Multipliers were set to 650 V, and the dwell time for each analyte was 100 milliseconds. […] The following ion transitions were used for quantification: sphingomyelin (704→184 m/z), sphinganine (302→284 m/z), ceramide (566→264 m/z) and psychosine (462→282 m/z) as an internal standard. […] For the quantitative method, the analytical column was a Phenomenex (Torrance, Calif.) Polar-RP (2.0×150 mm, 4 μm) with a […] […] Lipid extracts were analyzed by HPLC and evaporative light scattering detector to determine plasma sphingomyelin and phosphatidylcholine (PC) levels (R. Homan and M.K. Anderson, J. Chromatogr. B. Biomed. Sci. Appl. 1998;708:21-6). […] Sphinganine levels in liver (A) and aorta (B) were determined by LC/MS. […]

Assay [2] has the same test system. As to the kind of experiment: Lipid deposition in en face aorta, Oil Red O staining, 12 weeks. An excerpt: Vascular pathology—For quantitative analysis of atherosclerotic lesion coverage, sacrificed mice were perfused with saline and the aorta was isolated from the heart to the iliac bifurcation by severing minor branching arteries and dissecting the adventitia. After 24 hrs of fixation with 10% buffered formalin, aorta was opened longitudinally and pinned down on the black wax. Lipids were stained with Oil Red O and photographs were taken. The percentage of aorta stained with Oil Red O was determined by image analysis software, Image Pro Plus.
FIG. 10. Lipid deposition in aortae of Western-diet fed ApoE KO mice. ApoE KO mice were fed with Western diet in the presence or absence of myriocin for 12 weeks. Mice were sacrificed and fixed with 10% buffered formalin for 24 hours. The aorta from heart to the iliac bifurcation was dissected, opened along the ventral surface and pinned down on a black wax background. Accumulated lipids were visualized by Oil Red O staining. Areas of the atherosclerotic lesion were quantified by using Image Pro Plus and represented as percentage of lesion area to total aorta area. The values reported are mean±SEM (n=4, WD vs. WD+myriocin or normal chow, *P<0.01; Normal vs. WD+myriocin, #P<0.01). Bar represents 1 cm.

Assay [3] shares this test system. Kind of assay: Incorporation of T lymphocytes into lesion of aortic root. The note with it: 12 weeks. The protocol: For histological analysis, the mice were perfused and fixed in Zinc-Tris fixative. Paraffin embedded sections were stained with Masson's Trichrome. Intimal macrophages were immunohistochemically stained using MAC-2 antibody (clone M3/38 from Cedarlane Laboratories Limited) counterstained with Verhoeff elastic stain. T-lymphocytes were immunohistochemically stained with rat CD3 antibody (clone CD3-12, Serotec). Lesion thickness and area occupied by macrophages were determined using Image Pro Plus software. FIG. 14. Incorporation of T lymphocytes into lesion of aortic root. Cross section of aortic root was stained by rat CD3 antibody and developed by diaminobenzidine (brown color) to detect incorporated T lymphocytes. Sections were counterstained with Harris hematoxylin (blue). T-lymphocyte incorporation was quantified by measuring number of intimal T lymphocytes in aortic root (FIG. 14). Values are mean±SEM (n=5; *P<0.05, Western diet vs standard chow; #P<0.05, Western diet plus myriocin vs standard chow). Bar represents 50 μm.

Setting [4] is: vs Western diet-fed ApoE KO mice.

Consider 1 molecule from patent US20080027088A1, “Imidazole-Based Hmg-Coa Reductase Inhibitors” (Warner-Lambert Company, LLC, priority 2004, published 2008).

`CCCCCCC(=O)CCCCCC/C=C/C[C@@H](O)[C@H](O)[C@@](N)(CO)C(=O)O` [myriocin]: the “sphinganine levels in the liver lowered” value in assay [1] (setting [4]) was determined as 42%. For the same molecule, the “sphinganine levels in aorta lower” value in assay [1] (vs Western diet-fed group) amounted to 45%. Further, the “atherosclerotic lesion decreased, en face aorta (Oil Red O)” value in assay [2] (compared with normal chow-fed ApoE KO mice) was 75%. In addition, in assay [2] (setting [4]), the “atherosclerotic lesion coverage reduced, en face aorta (Oil Red O)” value is 93%. For the same molecule, the “accumulation of T cells in lesion of aortic root” value in assay [3] was “not affected”.
